From US11390617B2, “Methods of treating non-Hodgkin lymphoma using 2-(2,6-dioxopiperidin-3-yl)-4-((2-fluoro-4-((3-morpholinoazetidin-1-yl)methyl)benzyl)amino)isoindoline-1,3-dione” (Celgene Corporation, priority 2019, dated 2022)

Legend:
Experiment in all cases: NHL cell line viability/apoptosis 384-well flow cytometry assay
Format in all cases: cell-based
[1] = test system: DOHH2; conditions: DOHH2 (FL), 120 hours
Protocol: (§1) The following exemplary anti-proliferative assay uses exemplary non-Hodgkin lymphoma (NIL) cell lines (including diffuse large B-cell lymphoma (DLBCL), follicular lymphoma (FL), and mantle cell lymphoma (MCL)) (Table 5). The in vitro growth inhibitory activity of Compound 1 described herein was evaluated using a 384-well flow cytometry assay.
(§2) The cell lines in Table 5 were plated in 384-well flat bottom plates and assessed with increasing concentrations of compound ranging from 0.00015 to 10 μM or dimethyl sulfoxide (DMSO) control. The final concentration of DMSO was 0.1% (v/v). Following the addition of Compound 1 or DMSO and incubation for 120 hours, cell number and cell death were analyzed by flow cytometry (Attune®, Thermo Fisher) using Annexin V and the live-cell impermeant DNA dye, DRAQ7. Phosphatidylserine translocates from the inner layer to the outer layer of the cell membrane early in apoptosis and Annexin V binds to the exposed phosphatidylserine found on the surface of an apoptotic cell. The vital dye DRAQ7 is excluded by intact live cells and only stains cells that have died as a result of apoptosis or necrosis.
(§3) Flow cytometry data analysis was then performed using the Flow Jo_v10 software to determine the number of viable cells (Annexin V and DRAQ7 double negative staining cells) and percentage of apoptotic cells (Annexin V positive cells) for each condition. The live cell count for every concentration was normalized to the DMSO control (considered as 100%) to calculate the percentage of viable cells remaining after treatment and graphed using GraphPad Prism 7.03. The IC50 (50% inhibitory concentration) and Emax (maximum efficacy achieved) values were then calculated by performing nonlinear regression curve fitting using log(inhibitor) vs. normalized response—variable slope analysis on GraphPad Prism 7.03. Area under the curve (AUC) was calculated by performing area under curve analysis on GraphPad Prism 7.03. Similarly, for apoptosis analysis, the percentage of apoptosis combining both “early” (Annexin V positive and DRAQ7 negative) and “late” apoptosis (Annexin V and DRAQ7 positive) cell gates relative to DMSO was graphed using GraphPad Prism 7.03. The AUC, EC50 (concentration of Compound 1 that produces half-maximal apoptosis response) and Ymax (maximal percentage of apoptosis achieved) values from apoptosis curves were calculated by performing area under curve analysis and nonlinear regression curve fitting using log(agonist) vs. normalized response—Variable slope analysis on GraphPad Prism 7.03.
(§4) In Table 6, dose-response proliferation curves for the panel of NHL cell lines and non-linear curve-fit regression were used to determine IC50, AUC, and Emax for % viable cells (Emax for viability varies between 100 at low doses and 0 at high doses, which corresponds to inhibition of all viable cells), and dose-response apoptosis curves were used to determine the EC50, AUC, and Ymax for % apoptosis (Ymax for apoptosis varies from 0 at low doses and 100 at higher doses which corresponds to death of all cells). Tumor cells were exposed to serial dilutions (0.00015 to 10 μM) of Compound 1 or dimethyl sulfoxide (DMSO) control for 5 days. Viability and apoptosis for all cell lines was determined by Annexin V/[…] flow cytometry.

[2] = test system: KARPAS-422; conditions: KARPAS-422 (DLBCL), 120 hours
Protocol: as §1, §2, §3, §4

[3] = test system: NU-DHL-1; conditions: NU-DHL-1 (DLBCL), 120 hours
Protocol: as §1, §2, §3, §4

[4] = test system: OCI-LY1; conditions: OCI-LY1 (DLBCL), 120 hours
Protocol: as §1, §2, §3, §4

[5] = test system: OCI-LY3; conditions: OCI-LY3 (DLBCL), 120 hours
Protocol: as §1, §2, §3, §4

[6] = test system: RIVA; conditions: RIVA (DLBCL), 120 hours
Protocol: as §1, §2, §3, §4

[7] = test system: SU-DHL-5; conditions: SU-DHL-5 (DLBCL), 120 hours
Protocol: as §1, §2, §3, §4

[8] = test system: TMD8; conditions: TMD8 (DLBCL), 120 hours
Protocol: as §1, §2, §3, §4

[9] = test system: U-2932; conditions: U-2932 (DLBCL), 120 hours
Protocol: as §1, §2, §3, §4

[10] = test system: ULA; conditions: ULA (DLBCL), 120 hours
Protocol: as §1, §2, §3, §4

[11] = test system: VAL; conditions: VAL (DLBCL), 120 hours
Protocol: as §1, §2, §3, §4

[12] = test system: WILL-1; conditions: WILL-1 (DLBCL), 120 hours
Protocol: as §1, §2, §3, §4

[13] = Homo sapiens, read-out: IC50 (% Viable Cells)
[14] = read-out: IC50 (% Viable Cells)

With O=C1CC[C@H](N2C(=O)c3cccc(NCc4ccc(CN5CC(N6CCOCC6)C5)cc4F)c3C2=O)C(=O)N1 [Compound 1, (S)-2-(2,6-dioxopiperidin-3-yl)-4-((2-fluoro-4-((3-morpholinoazetidin-1-yl)methyl)benzyl)amino)isoindoline-1,3-dione] the “AUC (% Viable Cells)” value [1] was 6.902, the “AUC (Apoptosis)” value [1] was 923.9 and the “Emax (% Viable Cells)” value [1] was 0.2066%. For the same compound, the “Ymax (Apoptosis)” value [1] was 95.1%, the EC50 ([1]; Homo sapiens, DOHH-2) was 17.5 nM and the IC50 ([1]; Homo sapiens, DOHH-2, read-out: IC50 (% Viable Cells)) was 2.8 nM. The EC50 ([2]; Homo sapiens) was 46.1 nM, the IC50 [2, 13] was 13.1 nM and the “AUC (% Viable Cells)” value [2] was 19.97. The “AUC (Apoptosis)” value [2] was 911.9, the “Emax (% Viable Cells)” value [2] was 0.8721% and the “Ymax (Apoptosis)” value [2] was 93.99%. The EC50 ([3]; Homo sapiens) was 1.27 nM, the IC50 [3, 13] was 1.07 nM and the “AUC (% Viable Cells)” value [3] was 12.37. For the same compound, the “AUC (Apoptosis)” value [3] was 981.8, the “Emax (% Viable Cells)” value [3] was 0.4919% and the “Ymax (Apoptosis)” value [3] was 99.17%. For the same compound, the EC50 ([4]; Homo sapiens) was 33.4 nM, the IC50 [4, 13] was 6 nM and the “AUC (% Viable Cells)” value [4] was 22.77. For the same compound, the “AUC (Apoptosis)” value [4] was 852.3, the “Emax (% Viable Cells)” value [4] was 1.037% and the “Ymax (Apoptosis)” value [4] was 90.09%. The EC50 ([5]; Homo sapiens) was 0.263 nM, the IC50 [5, 13] was ≥ 10000 nM and the “AUC (% Viable Cells)” value [5] was 965.1. For the same compound, the “AUC (Apoptosis)” value [5] was 24.63, the “Emax (% Viable Cells)” value [5] was 85.63% and the “Ymax (Apoptosis)” value [5] was 4.493%. The “AUC (% Viable Cells)” value [6] was 452.6, the “AUC (Apoptosis)” value [6] was 242.8 and the EC50 [6] was 17.7 nM. The “Emax (% Viable Cells)” value [6] was 36.65%, the “Ymax (Apoptosis)” value [6] was 27.92% and the IC50 [6, 14] was 114 nM. For the same compound, the EC50 ([7]; Homo sapiens) was 3.6 nM, the IC50 [7, 13] was 2.39 nM and the “AUC (% Viable Cells)” value [7] was 1.873. For the same compound, the “AUC (Apoptosis)” value [7] was 934.1, the “Emax (% Viable Cells)” value [7] was 0.1398% and the “Ymax (Apoptosis)” value [7] was 95.23%. For the same compound, the EC50 ([8]; Homo sapiens) was 6.17 nM, the IC50 [8, 13] was 2.46 nM and the “AUC (% Viable Cells)” value [8] was 4.187. The “AUC (Apoptosis)” value [8] was 963.3, the “Emax (% Viable Cells)” value [8] was 0.245% and the “Ymax (Apoptosis)” value [8] was 97.2%. For the same compound, the EC50 ([9]; Homo sapiens, U2932) was 567 nM, the IC50 ([9]; Homo sapiens, U2932, read-out: IC50 (% Viable Cells)) was 36 nM and the “AUC (% Viable Cells)” value [9] was 163.7. For the same compound, the “AUC (Apoptosis)” value [9] was 212.8, the “Emax (% Viable Cells)” value [9] was 12.8% and the “Ymax (Apoptosis)” value [9] was 25.81%. The “AUC (% Viable Cells)” value [10] was 0.5518, the “AUC (Apoptosis)” value [10] was 995.3 and the EC50 [10] was 1.79 nM. The “Emax (% Viable Cells)” value [10] was 0.02523%, the “Ymax (Apoptosis)” value [10] was 99.76% and the IC50 [10, 14] was 0.99 nM. The “AUC (% Viable Cells)” value [11] was 14.62, the “AUC (Apoptosis)” value [11] was 936.7 and the EC50 [11] was 0.605 nM. For the same compound, the “Emax (% Viable Cells)” value [11] was 0.9632%, the “Ymax (Apoptosis)” value [11] was 95.68% and the IC50 [11, 14] was 0.57 nM. The “AUC (% Viable Cells)” value [12] was 233.7, the “AUC (Apoptosis)” value [12] was 549.4 and the EC50 [12] was 2520 nM. For the same compound, the “Emax (% Viable Cells)” value [12] was 4.216%, the “Ymax (Apoptosis)” value [12] was 79.51% and the IC50 [12, 14] was 817 nM.
